Earlier results, collected in patent US20050074443A1, “Methods of attenuating autoimmune disease and compositions useful therefor” (priority 2003, published 2005).

Tested on: experimental autoimmune encephalomyelitis
Details: exogenous administration, mouse model

## C=C1/C(=C\C=C2/CCC[C@]3(C)[C@@H]([C@H](C)CCCC(C)(C)O)CC[C@@H]23)C[C@@H](O)C[C@@H]1O [1,25-dihydroxyvitamin D3]
  effect on experimental autoimmune encephalomyelitis: can prevent experimental autoimmune encephalomyelitis
